≈ marks a conversion by molar mass, not a printed value.
Assays:
[1] = test system: S. aureus mgrA mutant (mgrA-) strain; experiment: MIC measurement, susceptibility of mgrA mutant strain to fluoroquinolones and vancomycin; type: cell-based; conditions: Staphylococcus aureus
Method: (§1) S. aureus cells were serially diluted and an equal number of cells was spotted on a plate containing various concentrations of antibiotics. The S. aureus strain Newman (wild-type) and the mutant strains mgrA- and mgrH1- (knock outs) were tested.

[2] = test system: S. aureus strain Newman (wild-type); experiment: MIC measurement, susceptibility of wild-type strain to fluoroquinolones and vancomycin; type: cell-based; conditions: Staphylococcus aureus
Method: as §1

[3] = target: T1, MgrA (Staphylococcus aureus, UniProt Q99VT5); experiment: Alkylation of Cys12 in MgrA, DTNB assay for free thiol content; type: biochemical, S. aureus; design: His6 (N, cleaved yes); made in house; host or cells: E. coli BL21(DE3); conditions: 8 equivalents alkylator, 0.05 mM MgrA in water, pH 7.4, 1 h, r.t.
T1 sequence (Q99VT5 1-147): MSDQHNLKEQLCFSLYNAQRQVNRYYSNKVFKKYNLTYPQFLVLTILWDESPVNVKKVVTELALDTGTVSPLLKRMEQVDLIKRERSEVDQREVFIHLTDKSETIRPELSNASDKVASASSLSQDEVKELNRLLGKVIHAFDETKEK
Method: Alkylation of Cys12 in MgrA in vitro and in vivo. In a study to test potential alkylation of Cys12 in MgrA, the inventors examined several alkylators (1-7, Table 3). Eight equivalents of alkylators were used to react with 0.05 mM MgrA in water for 1 h at pH 7.4 at room temperature. Alkylation of Cys12 was determined by DTNB assay for free thiol content. […] Over 95% of cysteine thiols were alkylated by compound 7 after 1 h of reaction.

[4] = test system: norA gene; experiment: qRT-PCR of norA gene activation; type: cell-based, S. aureus; conditions: Newman strain
Method: Lanes 1 and 2, purified MgrA (2 μM) with a 40 bp oligonucleotide (0.4 pmol) containing the MgrA binding sequence on the sarV promoter region; lanes 3 and 4, MgrA was treated with 100 equivalents of phenyl vinyl sulfone (7) for 30 min (lane 3) or 60 min (lane 4) before mixed with DNA and applied for the shift assay. FIGS. 13A-B: The Cys-alkylator phenyl vinyl sulfone (PVS) has similar effects on MgrA as hydrogen peroxide. (FIG. 13A) Treatment of the Newman strain with PVS turned on resistance of the pathogen towards vancomycin. (FIG. 13B) The norA gene is repressed by MgrA; however, treatment of the Newman strain with either H2O2 or PVS can turn on this gene.
Activation of MgrA by phenyl vinyl sulfone (PVS) inside S. aureus was tested. […] To further confirm the effect of PVS, the inventors monitored activation of the norA gene known to be repressed by MgrA. […] The next challenge is to develop vinyl sulfones that have high affinity and specificity toward MgrA. Of course, a non-covalent modulator that can activate MgrA with high sensitivity and specificity via direct binding is also highly desirable.

[5] = test system: S. aureus Newman strain; experiment: Antibiotic sensitivity assay of S. aureus under oxidative stress or alkylator treatment; type: cell-based, Staphylococcus aureus
Method: The change of susceptibility levels of S. aureus strains toward ciprofloxacin and vancomycin under oxidative stress. The antibiotic resistance levels were tested in the absence (−H2O2) or presence (+H2O2) of 100 μM H2O2 by a plate sensitivity assay (FIG. 7A) and were also determined in the absence (−PQ) or presence (+PQ) of 25 μM paraquat by a 96-well-plate sensitivity assay (FIG. 7B). […] Empty bars are non-treated cultures. Results are mean ±s.d. from three independent experiments performed in duplicate.
Five strains were used to test oxidation responses in vivo: the wild-type Newman, the mgrA- mutant (knock out), the mgrA- mutant complemented with mgrA cloned in a plasmid pYJ335, the mgrA- mutant complemented with mgrAC12S in pYJ335, and the control mutant strain with pYJ335.
The susceptibility levels of all five strains toward CIP and VCM were also evaluated in the absence and presence of paraquat (PQ), another reagent known to cause oxidative stress in vivo (FIG. 7B).

[6] = target: T2, MgrH1 (Staphylococcus aureus, UniProt Q2FVN3); conditions: 4 equiv oxidant, 10 min, r.t.
T2 sequence (Q2FVN3 1-148): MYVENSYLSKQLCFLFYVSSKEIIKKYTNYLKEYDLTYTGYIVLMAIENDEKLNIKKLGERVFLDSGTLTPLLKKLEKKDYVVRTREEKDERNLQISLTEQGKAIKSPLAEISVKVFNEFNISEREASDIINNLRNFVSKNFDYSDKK

[7] = target: T1, MgrA; conditions: 4 equiv oxidant, 10 min, r.t.
[8] = target: T3, SarA (Staphylococcus aureus, UniProt P0C1U6); experiment: Oxidation of Cys9 in SarA by oxidants; type: biochemical, S. aureus; conditions: 100 equiv oxidant, 30 min, r.t.
T3 construct: made in house
T3 sequence (P0C1U6 1-124): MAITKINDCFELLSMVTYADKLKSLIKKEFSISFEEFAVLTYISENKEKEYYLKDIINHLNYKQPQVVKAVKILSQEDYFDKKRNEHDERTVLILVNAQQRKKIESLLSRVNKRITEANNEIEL
Source text: SarA may adopt an oxidation sensing mechanism similar to MgrA. Cys9 in SarA might be oxidized by ROS or other reactive species which could lead to its dissociation from DNA and activation of the sarA regulon. To test this hypothesis, they cloned, expressed, and purified SarA.

[9] = test system: splB gene; conditions: Newman strain, 0.4 mM, 30 min, qRT-PCR
Source text: (FIG. 10C) Monitoring in vivo effects of SarA oxidation by qRT-PCR.
The inventors also monitored activation of a virulence gene splB in S. aureus.

[10] = target: T1, MgrA; experiment: Binding assays of MgrA with antibiotics; design: His6 (N, cleaved yes); made in house; host or cells: E. coli BL21(DE3); species or system S. aureus
Source text: The regulation mechanism of MgrA. […] The inventors were very intrigued by what they had learned about MgrA: • i) MgrA is a DNA binding protein based on its structure and gel shift experiments. • ii) MgrA regulates S. aureus responses to fluoroquinolones (CIP and NOR, FIG. 1), vancomycin, and oxacillin (data not shown). […] Therefore, MgrA must sense some other host or environmental signals. The mechanistic issue for MgrA frustrated the inventors after they obtained the first crystal structure of this protein. Numerous binding assays were peformed to test a variety of hypotheses. A breakthrough came from a careful inspection of the MgrA structure and its sequence, when it was noticed that there is only one Cys residue present in the entire MgrA sequence, at position 12. This Cys residue, located in the N-terminal α1, is precisely in the dimerization domain (FIG. 4A) and seems to play an important role in orienting the MgrA dimer conformation. Each monomer presents its Cys12 to be recognized through hydrogen bonding to Ser113 and Tyr38 from the other monomer (FIG. 4B).

Structure (SMILES): O=C(O)c1cn(C2CC2)c2cc(N3CCNCC3)c(F)cc2c1=O [CIP, ciprofloxacin]
- MIC [1]: 0.7 µg/mL (≈ 2.11 µM)
- MIC [2]: 0.35 µg/mL (≈ 1.06 µM)

Structure (SMILES): CCOC(=O)CI [Compound 2]
- Alkylation percentage (Cys12 of MgrA) [3]: >95%

Structure (SMILES): O=C(CI)c1ccccc1 [Compound 3]
- Alkylation percentage (Cys12 of MgrA) [3]: >95%

Structure (SMILES): O=C1C=CC(=O)N1 [Compound 4]
- Alkylation percentage (Cys12 of MgrA) [3]: >95%

Structure (SMILES): c1ccc(OCC2CO2)cc1 (centres unmarked) [Compound 5]
- Alkylation percentage (Cys12 of MgrA) [3]: 48%

Structure (SMILES): c1ccc(CC2CO2)cc1 (centres unmarked) [Compound 6]
- Alkylation percentage (Cys12 of MgrA) [3]: 59%

Structure (SMILES): C=CS(=O)(=O)c1ccccc1 [Compound 7, phenyl vinyl sulfone]
- Activation of norA gene [4]: activated norA as efficient as H2O2
- Change of resistance to vancomycin ([5]; 25 μM PVS, Newman strain): enhanced resistance to vancomycin

Structure (SMILES): OO [Compound H2O2, hydrogen peroxide]
- Oxidation of MgrH1 (Cys13) [6]: 4 equiv, 10 min, 71%
- Oxidation of MgrA (Cys12) [7]: 4 equiv, 10 min, 65%
- Oxidation of SarA (Cys9) [8]: 15% oxidation at r.t.
- Change of resistance toward CIP and VCM ([5]; 100 μM H2O2, Newman strain, plate sensitivity assay): increased resistance
- Activation of splB gene [9]: activated

Structure (SMILES): CCn1cc(C(=O)O)c(=O)c2cc(F)c(N3CCNCC3)cc21 [NOR, norfloxacin]
- MIC [1]: 1.4 µg/mL (≈ 4.38 µM)
- MIC [2]: 0.7 µg/mL (≈ 2.19 µM)

Structure (SMILES): C[n+]1ccc(-c2cc[n+](C)cc2)cc1 [PQ, paraquat]
- Change of resistance toward CIP and VCM ([5]; 25 μM paraquat, Newman strain, 96-well-plate sensitivity assay): increased antibiotic resistance

Structure (SMILES): CN[C@H](CC(C)C)C(=O)N[C@H]1C(=O)N[C@@H](CC(N)=O)C(=O)N[C@H]2C(=O)N[C@H]3C(=O)N[C@H](C(=O)N[C@H](C(=O)O)c4cc(O)cc(O)c4-c4cc3ccc4O)[C@H](O)c3ccc(c(Cl)c3)Oc3cc2cc(c3O[C@@H]2O[C@H](CO)[C@@H](O)[C@H](O)[C@H]2O[C@H]2C[C@](C)(N)[C@H](O)[C@H](C)O2)Oc2ccc(cc2Cl)[C@H]1O [VCM, vancomycin]
- Binding to MgrA [10]: does not bind
- MIC [1]: 2.4 µg/mL (≈ 1.66 µM)
- MIC [2]: 1.2 µg/mL (≈ 0.828 µM)

— patent US20070248581A1, “MGRA IS A REDOX REGULATOR OF ANTIBIOTIC SENSITIVITY AND VIRULENCE” (priority 2006, published 2007)
